Blank lines part the entries; values can stand above or below the compound they belong to. Peptide text beside a SMILES is read from it.
Experiments:
human recombinant VDAC = molecular target: T1, human recombinant VDAC (Homo sapiens, UniProt P21796); assay: isothermal titration calorimetry (ITC); assay type: binding; settings: 20° C.
T1 construct: The cleaved, full length hVDAC1 was collected from the HS-HQ flow through; hexahistidine-SUMO (N, cleaved yes); made in house; host or cells: E. coli ScarabXpress T7 lac
T1 sequence (P21796 whole entry): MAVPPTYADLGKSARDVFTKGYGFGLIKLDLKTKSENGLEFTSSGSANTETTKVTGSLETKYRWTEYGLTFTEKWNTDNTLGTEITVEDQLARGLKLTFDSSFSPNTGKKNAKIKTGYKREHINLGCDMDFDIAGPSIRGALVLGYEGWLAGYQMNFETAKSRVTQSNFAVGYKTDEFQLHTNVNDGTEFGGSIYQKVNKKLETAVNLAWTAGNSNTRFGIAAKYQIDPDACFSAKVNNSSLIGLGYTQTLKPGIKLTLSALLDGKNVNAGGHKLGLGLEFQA
Procedure: Expression and purification of human VDAC1. A full length human VDAC1 cDNA (hVDAC1) was cloned into pET28b vector containing an N-terminal hexahistidine-SUMO fusion tag, with a flexible linker cleavable by tobacco etch virus (TEV) protease. The hVDAC1 was expressed in E. coli ScarabXpress T7 lac competent cells (Scarab genomics) for 16 h at 16° C. using 1 mM IPTG (Denville Scientific Inc.). The cells were harvested by centrifugation and lysed on ice via sonication in buffer containing 25 mM Tris-HCl (pH 7.5), 1 M Urea, 1 M KCl, 5% glycerol, 1 mM Benzamidine and 1 mM PMSF (Ni Buffer A). The lysate was centrifuged at 18,000 rpm for 20 min at 4° C. The cell pellet was first washed extensively in Ni Buffer A with 1% Triton X-100 and then solubilized in buffer containing 20 mM Tris-HCl (pH 7.9), 500 mM NaCl, 4 M guanidine-HCl and 10% glycerol for 45 min with gentle stirring. The supernatant was collected following centrifugation at 20,000 rpm for 10 min at 4° C. The protein was then purified over nickel-nitrilotriacetic acid (Ni-NTA—Qiagen) column and buffer-exchanged to 25 mM Tris-HCl (pH 7.5), 500 mM KCl, 5% glycerol, 1 mM benzamidine and 1 mM PMSF (Ni buffer C) with 2% n-Octylglucoside (Research Products International). The protein was then eluted with 300 mM imidazole and treated overnight with TEV at 4° C. to cleave the His-SUMO tag. […]

PC3 cells = assay: cytochrome c release from tumor cells, Western blotting; assay type: cell-based, human; settings: supernatants vs mitochondrial extracts
[1] = system: isolated tumor (PC3) mitochondria; assay: high-throughput assay for depolarization of isolated tumor (PC3) mitochondria, TMRE staining; assay type: biochemical, human; settings: MFF peptides 20 μM
Procedure: Analysis of mitochondrial membrane potential. […] In some experiments, PC3 cells were treated with cell-permeable scrambled peptide or cell-permeable MFF #8-11 peptide, washed three times in PBS, pH 7.4, and analyzed on a FACSCalibur flow cytometer, with the TMRE signal as FL1. Intact cells were gated in the FSC/SSC plot to exclude small debris. Cells treated with 20 μM FCCP 10 min prior to TMRE staining were used as a negative control. The resulting FL1 data were plotted on a histogram. For quantification of membrane potential of purified mitochondria, mitochondria isolated from PC3 cells (50 μg) were suspended in 400 μl of SB buffer (0.2 M sucrose, 10 mM Tris-MOPS, pH 7.4, 5 mM succinate, 1 mM sodium phosphate, 10 μM EGTA-Tris, 2 μM rotenone). […] After two washes with SB buffer, mitochondria were recovered by centrifugation at 6000×g for 10 min, suspended in 100 μl of SB buffer and mitochondrial membrane potential was quantified on a florescence microplate reader (Ex/Em=535/595 nm, Beckman Coulter). Samples treated with 2 mM CaCl2 were used as control for the lowest membrane potential (fully depolarized state).

[2] = molecular target: T2, MFF-PTP complex (MFF and VDAC or HK-I) (Homo sapiens, UniProt P21796); assay: competition of MFF-PTP complex in isolated cell extracts, Flag-MFF1 immunoprecipitation and Western blotting; assay type: biochemical; settings: added to isolated cell extracts
T2 construct: VDAC and HK-I are endogenous
T2 sequence (P21796 2-283 limits assumed, one chain of several): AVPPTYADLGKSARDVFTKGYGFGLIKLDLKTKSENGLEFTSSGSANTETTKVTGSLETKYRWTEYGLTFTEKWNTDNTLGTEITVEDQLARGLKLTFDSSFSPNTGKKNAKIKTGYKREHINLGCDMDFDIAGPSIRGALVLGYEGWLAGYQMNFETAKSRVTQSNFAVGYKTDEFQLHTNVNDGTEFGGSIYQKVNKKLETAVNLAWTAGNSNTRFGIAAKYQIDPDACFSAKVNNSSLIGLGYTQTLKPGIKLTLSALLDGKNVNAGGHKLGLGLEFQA
Procedure: Immunoprecipitation (IP). Cells were harvested and lysed with IP buffer (50 mM Tris-HCl, pH 7.5, 150 mM NaCl, 1 mM EDTA) containing 1% CHAPS, EDTA-free Protease Inhibitor Cocktail (Sigma-Aldrich) and Phosphatase Inhibitor Cocktail PhosSTOP (Roche). After sonication, lysates were centrifuged at 15,000×g for 30 min, and cell extracts were incubated with anti-Flag-conjugated beads (Sigma-Aldrich). The precipitates were washed five times, separated by SDS-polyacrylamide gel electrophoresis and processed for Western blotting together with samples representing unbound material and supernatant.
Immunoprecipitation. Cells were harvested and lysed with PLD assay buffer (50 mM HEPES-NaOH, pH 7.3, 3 mM EGTA, 3 mM CaCl2, 3 mM MgCl2, 80 mM KCl) containing 1% CHAPS, EDTA-free Protease Inhibitor Cocktail (Sigma-Aldrich) and Phosphatase Inhibitor Cocktail PhosSTOP (Roche). After sonication, lysates were centrifuged at 15,000×g for 30 min, and cell extracts were incubated with anti-Flag-conjugated beads (Sigma-Aldrich). The precipitates were washed five times, separated by sodium dodecyl sulfate-polyacrylamide gel electrophoresis (SDS-PAGE) and processed for Western blotting.

[3] = system: mitochondria of normal BPH-1 cells; assay: depolarization of isolated mitochondria of normal BPH-1 cells, TMRE staining; assay type: biochemical, human; settings: peptide #8 10-30 μM
DU145 or PC3 cells = assay: release of HMGB1 and cyclophilin A from tumor cells, Western blotting; assay type: cell-based, human; settings: marker of necrosis
[4] = system: prostate cancer cell types (LNCaP, C4-2B, PC3, DU145); assay: cell death of prostate cancer cells, CellTox reactivity; assay type: cell-based, human; settings: PC3 / prostate cancer cells, 0-50 μM
Procedure: Cell death and apoptosis. […] The various cell-permeable MFF peptides were examined for induction of cytotoxicity using a CellTOX Green cytotoxicity assay kit (Promega). Briefly, 10^4 normal or tumor cells in 100 μl complete medium were plated on white opaque 96-well plate. […] Lysis Solution in the assay kit was used as cytotoxicity control (100% cell death) and treatment with PBS was used as a control for 100% cell viability.

[5] = system: NSCLC A549 and H460 or breast adenocarcinoma MDA-231 and MCF-7 cells; assay: NSCLC and breast adenocarcinoma cell lines, TMRE flow cytometry and CellTox cell death; assay type: cell-based, human; settings: A549, H460, MDA-231, MCF-7 cells, 10-25 μM, TMRE

- Kd (human recombinant VDAC): ~12 µM
Compound: CC[C@H](C)[C@H](NC(=O)CNC(=O)[C@H](CCCNC(=N)N)NC(=O)[C@H](C)NC(=O)[C@@H](N)CO)C(=O)N[C@@H](CC(C)C)C(=O)N[C@@H](CO)C(=O)N[C@@H](CC(C)C)C(=O)N[C@H](C(=O)N[C@@H](CCC(N)=O)C(=O)N[C@@H](CO)C(=O)N[C@@H](CO)C(=O)N[C@H](C(=O)N[C@@H](CCCNC(=N)N)C(=O)N[C@@H](CCCNC(=N)N)C(=O)N[C@@H](C)C(=O)N[C@@H](Cc1ccc(O)cc1)C(=O)N[C@@H](CCC(N)=O)C(=O)N[C@@H](CCC(N)=O)C(=O)N[C@H](C(=O)N[C@@H](CC(C)C)C(=O)O)[C@@H](C)CC)[C@@H](C)O)[C@@H](C)CC [MFF peptide #8-11] (H-SARGILSLIQSSTRRAYQQIL-OH)

Compound: AEMAEISRIQYEMEYTEGISQRMRVP (MFF-Derived; Peptide #1) [MFF #1]
- cytochrome c release from tumor cells (PC3 cells): had no effect

Compound: DGANLSSARGILSLIQSSTRRAYQQIL (MFF Deletion; Peptide 8 #6) [peptide #8 variant #6]
- depolarization of isolated tumor (PC3) mitochondria [1]: depolarized isolated tumor mitochondria

Compound: DGANLSSARGILSLIQSSTRRAYQQILDVL (MFF-Derived; Peptide #8) [MFF peptide #8]
- depolarization of isolated tumor (PC3) mitochondria [1]: depolarized tumor mitochondria
- disruption of the interaction between MFF and VDAC or HK-I [2]: disrupting the interaction between MFF and VDAC or HK-I
- depolarization of mitochondria of normal BPH-1 cells [3]: did not depolarize

Compound: MFF peptide #8-11 containing the double mutation R225D/R236D (DD): cell-permeable MFF peptide #8-11 mutant containing the double mutation R225D/R236D (DD) (RQIKIWFQNRRMKSADGILSLIQSSTDRAYQQIL)
- HMGB1 release from tumor cells (DU145 or PC3 cells): had no effect on HMGB1 release
- HMGB1 release from tumor cells (DU145 or PC3 cells; listed as MFF-DD mutant peptide #8-11): did not induce HMGB1 release
- tumor cell death / viability [4]: did not affect tumor cell viability
- tumor cell death / viability ([4]; listed as DD): entirely lost the ability to induce tumor (PC3) cell death

Compound: NLSSARGILSLIQSSTRRAYQQILDVL (MFF Deletion; Peptide 8 #1) [peptide #8 variant #1]
- depolarization of isolated tumor (PC3) mitochondria [1]: depolarized isolated tumor mitochondria

Compound: SARGILSLIQSSTRRAYQQILDVL (MFF Deletion; Peptide 8 #2) [peptide #8 variant #2]
- depolarization of isolated tumor (PC3) mitochondria [1]: depolarized isolated tumor mitochondria

- binding to human recombinant VDAC by ITC (human recombinant VDAC): ineffective
Compound: SSQLRYLARSQRITIQLIAGS (MFF Scramble; Peptide 8 #11) [scrambled sequence]
- mitochondrial membrane potential [5]: not
